Assay results as given in patent EP4438597A1, “2-STYRYLBENZOTHIAZOLE DERIVATIVES AS A-SYNUCLEIN BINDING COMPOUNDS” (Eberhard Karls Universität Tübingen Medizinische Fakultät, priority 2023, dated 2024).

Columns and labels:
[1] = molecular target: T1, αSYN fibrils (Homo sapiens, UniProt P37840); experiment: [3H]PiB competition binding assay on αSYN fibrils
Procedure: (§1) Concentrations of αSYN and Aβ1-42 fibrils were as described above.
Plates were incubated on a shaker (MaxQ 6000, Thermo Fisher Scientific Inc., Marietta, OH, USA) at 50 rpm for 2 hours at 37°C, covered by removable sealing tapes (PerkinElmer, Waltham, MA, USA). […] Data points were fitted using non-linear regression analysis in GraphPad Prism (GraphPad Software, Inc., Version 8.4.0, La Jolla, USA).

[2] = molecular target: T1, αSYN fibrils; experiment: [3H]MODAG-001 competition binding assay on αSYN fibrils; conditions: for Ki: competition with [3H]MODAG-001, αSYN fibrils
Procedure: as §1
(§2) Plates were incubated on a shaker (MaxQ 6000, Thermo Fisher Scientific Inc., Marietta, OH, USA) at 50 rpm for 2 hours at 37°C, covered by removable sealing tapes (PerkinElmer, Waltham, MA, USA). Vacuum filtration and read-out were performed as disclosed in Kuebler, L. et al., [11C]MODAG-001-towards a PET tracer targeting α-synuclein aggregates; European Journal of Nuclear Medicine and Molecular Imaging 2020, 48, 1759-1772. […] Data points were fitted using non-linear regression analysis in GraphPad Prism (GraphPad Software, Inc., Version 8.4.0, La Jolla, USA).

[3] = molecular target: T2, αSYN pathology (Homo sapiens, UniProt P37840); experiment: in vitro autoradiography on human brain slices with αSYN pathology (MSA, PD); format: binding; conditions: mean over MSA brain slices
T2 construct: tissue Neurobiobank München (NBM, Munich, Germany); host or cells: post-mortem human brain slices (MSA cerebellum, PD frontal cortex, controls)
Procedure: Post-mortem human brain slices (10 µm thickness) were obtained from and the subject cases were analyzed by the Neurobiobank München (NBM, Munich, Germany), where tissues were collected on the basis of written informed consent according to the guidelines of the ethics committee of the Ludwig-Maximilians-University Munich, Germany (# 345-13). The use of brain tissue samples in this study was approved by the ethics committee of the Faculty of Medicine at the University of Tuebingen (Ethics approval number: 813/2018BO2). Table 1 summarizes the information of the subjects from which samples were obtained and used in the experiment.
For autoradiography, brain slices were thawed for one hour before preincubation in BSA buffer for 25 minutes at room temperature. To determine total binding (TB), brain slices were incubated with the tracer (10 nM [^18F]PFSB, 10 nM [^18F]MFSB). […]
Quantitative data analysis was performed by drawing four regions of interest (ROIs) in relevant areas of the slice and one ROI next to it for background subtraction (imaged 1.8.0_172, National Institute of Health, Bethesda, Maryland, USA) (Schneider, C. A. et al., NIH Image to imaged: 25 years of image analysis; Nat Methods 2012, 9 (7), 671-5). […] The SB disease/SB control ratio was calculated by dividing by the SB in diseased tissues with the respective SB in control tissues.

[4] = molecular target: T3, Aβ1-42 fibrils (Homo sapiens, UniProt P05067); experiment: [3H]PiB competition binding assay on Aβ fibrils; conditions: for binding to Aβ fibrils (competition with [3H]PiB): [3H]PiB competition on Aβ fibrils
T3 construct: Synthetic lyophilized human Aβ1-42 peptide; purchased EMC Microcollections, Tuebingen, Germany; host or cells: chemical synthesis
Excerpt: The method for Aβ1-42 fibrils generation was adapted from Bagchi, D. P. et al., Binding of the radioligand SIL23 to alpha-synuclein fibrils in Parkinson disease brain tissue establishes feasibility and screening approaches for developing a Parkinson disease imaging agent; PLoS One 2013, 8 (2), e55031, and described in Kuebler, L. et al., [11C]MODAG-001-towards a PET tracer targeting α-synuclein aggregates; European Journal of Nuclear Medicine and Molecular Imaging 2020, 48, 1759-1772. Synthetic lyophilized human Aβ1-42 peptide (5 mg) with >90 % purity (EMC Microcollections, Tuebingen, Germany) was dissolved in DMSO (221.5 µL), followed by the addition of deionized water (4.1 mL) and 1 M Tris-HCl (111 µL, pH 7.6) to reach a final monomeric concentration of 250 µM. Aggregation was induced by incubation in Eppendorf Thermomixer at 37°C with shaking at 800 rpm for 72 hours. The resulted fibrils were sonicated for 3 min in a water bath (Elmasonic S 60 H, Elma Schmidbauer GmbH, Singen, Germany). The final products were aliquoted, frozen on dry ice, and stored at -80°C until use.
as §1, §2

[5] = [3H]PiB competition, αSYN fibrils, mean Ki ± SEM, two data points (9a, 14a, 15a, 17a, 18a, 43, 44, MFSB three; 12a single), read-out: Ki

T3 sequence (P05067 672-713 limits assumed): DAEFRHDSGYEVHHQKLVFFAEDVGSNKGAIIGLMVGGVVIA

SMILES	Ki ([1]; read-out: Ki) [nM]	further results
Fc1ccc2nc(C=Cc3ccc(N4CCCCC4)cc3)sc2c1 (mixture of isomers) [9a, 6-fluoro-2-(4-(piperidin-1-yl)styryl)benzo[d]thiazole]		Ki [1, 5]: 25.4 ± 2.3 nM; Ki [2]: 142 ± 16.9 nM
Cc1cccc2sc(C=Cc3ccc(N4CCCCC4)cc3)nc12 [1a, 4-methyl-2-(4-(piperidin-1-yl)styryl)benzo[d]thiazole]	135 ± 63.5	
Cc1cccc2sc(/C=C/c3ccc(N4CCCCC4)cc3)[n+](C)c12 [1b, 3,4-dimethyl-2-(4-(piperidin-1-yl)styryl)benzo[d]thiazol-3-ium 4-nitrobenzenesulfonate]		Ki [1]: 60 ± 23.9 nM
COc1cccc2sc(C=Cc3ccc(N4CCCCC4)cc3)[n+](C)c12 [2b, 4-methoxy-3-methyl-2-(4-(piperidin-1-yl)styryl)benzo[d]thiazol-3-ium iodide]	52.6 ± 18.3	
Fc1cccc2sc(C=Cc3ccc(N4CCCCC4)cc3)nc12 [3a, 4-fluoro-2-(4-(piperidin-1-yl)styryl)benzo[d]thiazole]	149 ± 38	
Cc1ccc2sc(C=Cc3ccc(N4CCCCC4)cc3)nc2c1 [4a, 5-methyl-2-(4-(piperidin-1-yl)styryl)benzo[d]thiazole]	161 ± 72.7	
Cc1ccc2sc(C=Cc3ccc(N4CCCCC4)cc3)[n+](C)c2c1 [4b, 3,5-dimethyl-2-(4-(piperidin-1-yl)styryl)benzo[d]thiazol-3-ium iodide]	72.2 ± 12.4	
COc1ccc2sc(C=Cc3ccc(N4CCCCC4)cc3)nc2c1 [5a, 5-methoxy-2-(4-(piperidin-1-yl)styryl)benzo[d]thiazole]	158 ± 29.7	
COc1ccc2sc(C=Cc3ccc(N4CCCCC4)cc3)[n+](C)c2c1 [5b, 5-methoxy-3-methyl-2-(4-(piperidin-1-yl)styryl)benzo[d]thiazol-3-ium iodide]	95.2 ± 67.7	
Fc1ccc2sc(C=Cc3ccc(N4CCCCC4)cc3)nc2c1 [6a, 5-fluoro-2-(4-(piperidin-1-yl)styryl)benzo[d]thiazole]	147 ± 22.3	
C[n+]1c(C=Cc2ccc(N3CCCCC3)cc2)sc2ccc(F)cc21 [6b, 5-fluoro-3-methyl-2-(4-(piperidin-1-yl)styryl)benzo[d]thiazol-3-ium iodide]	352 ± 83.5	
Cc1ccc2nc(C=Cc3ccc(N4CCCCC4)cc3)sc2c1 [7a, 6-methyl-2-(4-(piperidin-1-yl)styryl)benzo[d]thiazole]	224 ± 6.1	
Cc1ccc2c(c1)sc(C=Cc1ccc(N3CCCCC3)cc1)[n+]2C [7b, 3,6-dimethyl-2-(4-(piperidin-1-yl)styryl)benzo[d]thiazol-3-ium iodide]	20.3 ± 3.5	
COc1ccc2nc(C=Cc3ccc(N4CCCCC4)cc3)sc2c1 [8a, 6-methoxy-2-(4-(piperidin-1-yl)styryl)benzo[d]thiazole]	106 ± 3.6	
COc1ccc2c(c1)sc(C=Cc1ccc(N3CCCCC3)cc1)[n+]2C [8b, 6-methoxy-3-methyl-2-(4-(piperidin-1-yl)styryl)benzo[d]thiazol-3-ium iodide]	14.7 ± 5.1	
C[n+]1c(C=Cc2ccc(N3CCCCC3)cc2)sc2cc(F)ccc21 [9b, 6-fluoro-3-methyl-2-(4-(piperidin-1-yl)styryl)benzo[d]thiazol-3-ium iodide]	189 ± 146	

SMILES	Ki ([1]; read-out: Ki) [nM]	further results
Cc1cccc2c1sc(C=Cc1ccc(N3CCCCC3)cc1)[n+]2C [10b, 3,7-dimethyl-2-(4-(piperidin-1-yl)styryl)benzo[d]thiazol-3-ium iodide]	148 ± 83.7	
COc1cccc2c1sc(C=Cc1ccc(N3CCCCC3)cc1)[n+]2C [11b, 7-methoxy-3-methyl-2-(4-(piperidin-1-yl)styryl)benzo[d]thiazol-3-ium iodide]	206 ± 28.2	
Fc1cccc2nc(C=Cc3ccc(N4CCCCC4)cc3)sc12 [12a, 7-fluoro-2-(4-(piperidin-1-yl)styryl)benzo[d]thiazole]		Ki [1, 5]: 283 nM
c1ccc2sc(-c3ccc(N4CCCCC4)cc3)nc2c1 [13a, 2-(4-(piperidin-1-yl)phenyl)benzo[d]thiazole]	73.3 ± 61.2	
C(C=Cc1nc2ccccc2s1)=Cc1ccc(N2CCCCC2)cc1 [14a, 2-(4-(4-(piperidin-1-yl)phenyl)buta-1,3-dien-1-yl)benzo[d]thiazole]		Ki [1, 5]: 81.9 ± 15.6 nM
C[n+]1c(C=CC=Cc2ccc(N3CCCCC3)cc2)sc2ccccc21 [14b, 3-methyl-2-(4-(4-(piperidin-1-yl)phenyl)buta-1,3-dien-1-yl)benzo[d]thiazol-3-ium iodide]	19.9 ± 3.1	
C(=Cc1nc2ccccc2s1)c1ccc(N2CCOCC2)cc1 [15a, 4-(4-(2-(benzo[d]thiazol-2-yl)vinyl)phenyl)morpholine]		Ki [1, 5]: 92 ± 30.3 nM
C(=Cc1nc2ccccc2s1)c1ccc(N2CCSCC2)cc1 [16a, 2-(4-thiomorpholinostyryl)benzo[d]thiazole]	139 ± 80.2	
C(=Cc1nc2ccccc2s1)c1ccc(N2CCCC2)cc1 [17a, 2-(4-(pyrrolidin-1-yl)styryl)benzo[d]thiazole]		Ki [1, 5]: 73.4 ± 19 nM
C[n+]1c(C=Cc2ccc(N3CCCC3)cc2)sc2ccccc21 [17b, 3-methyl-2-(4-(pyrrolidin-1-yl)styryl)benzo[d]thiazol-3-ium iodide]	102 ± 43	
FC1CCN(c2ccc(C=Cc3nc4ccccc4s3)cc2)CC1 [18a, 2-(4-(4-fluoropiperidin-1-yl)styryl)benzo[d]thiazole]		Ki [1, 5]: 99.8 ± 32.6 nM
[18F]c1ccc2nc(/C=C/c3ccc(N4CCCCC4)cc3)sc2c1 [[^18F]PFSB]		specific binding (SB) ratio, MSA patients compared to control of the same brain area [3]: 3.94 ± 0.30
C(=Cc1nc2ccccc2s1)c1ccc(N2CCCCC2)cc1 [compound 20, 2-(4-(piperidin-1-yl)styryl)benzo[d]thiazole]	102 ± 68.5	
Fc1ccc2nc(C=CC=Cc3ccc(N4CCCCC4)cc3)sc2c1 [compound 43, 6-fluoro-2-(4-(4-(piperidin-1-yl)phenyl)buta-1,3-dien-1-yl)benzo[d]thiazole]		Ki [1, 5]: 214 ± 122 nM; binding to Aβ fibrils (competition with [3H]PiB) [4]: low
Fc1ccc2nc(C=CC=Cc3ccc(N4CCCC4)cc3)sc2c1 [compound 44, 6-fluoro-2-(4-(4-(pyrrolidin-1-yl)phenyl)buta-1,3-dien-1-yl)benzo[d]thiazole]		Ki [1, 5]: 85 ± 41 nM; binding to Aβ fibrils (competition with [3H]PiB) [4]: low
Fc1ccc2nc(C=Cc3ccc(N4CCOCC4)cc3)sc2c1 [compound 45, 4-(4-(2-(6-fluorobenzo[d]thiazol-2-yl)vinyl)phenyl)morpholine]		affinity improved by factor compared to PFSB ([1]; [3H]PiB competition, αSYN fibrils, MFSB vs PFSB): 2.5; Ki [1, 5]: 10.3 ± 4.7 nM; fold lower Ki than PFSB ([2]; [3H]MODAG-001 competition, MFSB vs PFSB): 4.6 fold; Ki [2]: 30.8 ± 10.5 nM; selectivity towards αSYN over Aβ ([4]; from [3H]PiB competition on αSYN and Aβ fibrils): remained unchanged
